Laboratory results as given in ChEMBL document CHEMBL1201862, “PubChem BioAssay data set” (2004).
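In this assay, cells in 96-well plates receive the compound at five concentrations for 48 hours. Endpoints are linearly interpolated between the surrounding concentrations. GI50 marks 50% less growth.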 The source made the active and inactive calls. No stated cut-off is given here; in the data, active = GI50 up to about 1.1 µM and inactive = higher.

Legend:
Test in all cases: DTP human tumour cell line panel, 48 h
[1] = system: KM12
[2] = system: U-251
[3] = system: EKVX
[4] = system: IGROV-1
[5] = system: SNB-19
[6] = system: SF-539
[7] = system: CAKI-1
[8] = system: SK-MEL-5
[9] = system: NCI-H460
[10] = system: DMS-273
[11] = system: A549
[12] = system: DLD-1
[13] = system: HOP-62
[14] = system: HL-60
[15] = system: OVCAR-3
[16] = system: SN12C
[17] = system: SF-268
[18] = system: DMS-114
[19] = system: SK-MEL-2
[20] = system: HT-29
[21] = system: MOLT-4
[22] = system: SW-620
[23] = system: LOX IMVI
[24] = system: SNB-75
[25] = system: M19-MEL
[26] = system: HOP-92
[27] = system: 786-0
[28] = system: ACHN
[29] = system: UO-31
[30] = system: HCT-15
[31] = system: RXF 393
[32] = system: HCT-116
[33] = system: NCI-H23
[34] = system: NCI-H226
[35] = system: K562
[36] = system: SF-295
[37] = system: Malme-3M
[38] = system: M14
[39] = system: A498
[40] = system: HCC 2998
[41] = system: COLO 205
[42] = system: UACC-62
[43] = system: CCRF-CEM
[44] = system: SK-OV-3
[45] = system: HOP-18
[46] = system: SK-MEL-28
[47] = system: OVCAR-8
[48] = system: OVCAR-4
[49] = system: UACC-257
[50] = system: SNB-78
[51] = system: TK-10
[52] = system: OVCAR-5
[53] = system: RXF 631
[54] = system: NCI-H522
[55] = system: LXFL 529
[56] = system: RPMI-8226
[57] = system: SR

Measured: GI50

CN(C)CCNC(=O)c1cccc2ccc(-c3cccnc3)nc12
inactive: [1] 6.5 µM | [2] 4.36 µM | [3] 4.47 µM | [4] 3.24 µM | [5] 4.14 µM | [6] 11.4 µM | [7] 3.88 µM | [8] 3.72 µM | [9] 2.94 µM | [10] 3.35 µM | [11] 3.7 µM | [12] 4.41 µM | [13] 5.57 µM | [14] 3.71 µM | [15] 6.27 µM | [16] 3.61 µM | [17] 5.65 µM | [18] 6.52 µM | [19] 8.57 µM | [20] 4.78 µM | [21] 2.74 µM | [22] 3.76 µM | [23] 3.8 µM | [24] 10.6 µM | [25] 5.71 µM | [26] 4.39 µM | [27] 5.89 µM | [28] 3.44 µM | [29] 1.98 µM | [31] 6.32 µM | [32] 3.24 µM | [33] 4.39 µM | [34] 6.84 µM | [35] 4.74 µM | [36] 5.69 µM | [37] 5.41 µM | [38] 8.45 µM | [39] 1.9 µM | [40] 5.31 µM | [41] 3.13 µM | [42] 4.73 µM | [43] 6.4 µM | [44] 10.1 µM | [45] 13.7 µM | [46] 11.6 µM | [47] 4.3 µM | [48] 8.24 µM | [49] 4.15 µM | [50] 7.11 µM | [51] 2.48 µM | [52] 3.87 µM | [53] 3.48 µM
4.06 µM: [30]

O=C(Nc1c(-c2nc3ccccc3[nH]2)sc(=S)n1-c1ccccc1)c1ccccc1
> 100 µM: [30]
inactive: [1] > 100 µM | [2] > 100 µM | [3] > 100 µM | [4] > 100 µM | [5] 82 µM | [6] 48.8 µM | [54] > 100 µM | [7] > 100 µM | [8] > 100 µM | [10] 91.8 µM | [11] > 100 µM | [12] > 100 µM | [13] 56.1 µM | [14] > 100 µM | [15] 96.8 µM | [16] 74 µM | [17] > 100 µM | [18] 98.9 µM | [19] > 100 µM | [20] > 100 µM | [21] > 100 µM | [22] > 100 µM | [23] 97.1 µM | [24] 29.4 µM | [25] > 100 µM | [27] 91.2 µM | [28] > 100 µM | [29] > 100 µM | [31] > 100 µM | [33] > 100 µM | [55] 58.9 µM | [56] > 100 µM | [34] 24.5 µM | [35] > 100 µM | [36] 97.5 µM | [37] > 100 µM | [38] > 100 µM | [39] > 100 µM | [40] > 100 µM | [41] > 100 µM | [42] > 100 µM | [43] > 100 µM | [44] > 100 µM | [45] > 100 µM | [46] > 100 µM | [47] 88.9 µM | [48] > 10 µM | [49] > 100 µM | [50] 61.7 µM | [51] > 100 µM | [52] > 100 µM | [53] > 100 µM

CC1=NN(C(=O)c2cc(Cl)cc([N+](=O)[O-])c2)C(=O)C1/N=N/c1ccccc1C(=O)O (stereo unspecified)
inactive: [1] > 100 µM | [2] > 100 µM | [3] > 100 µM | [4] > 100 µM | [5] > 100 µM | [6] > 100 µM | [54] 36.6 µM | [7] > 100 µM | [8] > 100 µM | [9] > 100 µM | [10] > 100 µM | [11] > 100 µM | [12] > 100 µM | [14] > 100 µM | [15] > 100 µM | [16] > 100 µM | [17] > 100 µM | [19] > 100 µM | [57] > 100 µM | [20] > 100 µM | [21] > 100 µM | [22] > 100 µM | [24] 75.2 µM | [25] > 100 µM | [27] > 100 µM | [28] > 100 µM | [29] > 100 µM | [31] > 100 µM | [32] > 100 µM | [33] > 100 µM | [55] > 100 µM | [56] > 100 µM | [34] > 100 µM | [35] > 100 µM | [36] > 100 µM | [37] > 100 µM | [39] > 100 µM | [40] > 100 µM | [41] > 100 µM | [42] 69.5 µM | [43] > 100 µM | [44] > 100 µM | [45] > 100 µM | [46] > 100 µM | [47] > 100 µM | [49] > 100 µM | [50] > 100 µM | [51] > 100 µM | [52] > 100 µM | [53] > 100 µM
